For one data set, the system named is pregnant rats. Kind of data set: Embryofetal toxicity study in pregnant rats. It is filed as in vivo, rat.
In data set [1] the test system is circulating levels of LH and FSH. The data set is described as follows: 4-week multiple dose study in ovariectomized female rats. In kind it is in vivo, rat.
The subject of another data set is bone. The data set is described as follows: AOST BMD (bone mineral density). It is filed as in vivo.
Another data set relates to endometrium. The data set is described as follows: 4-week phase I study, endometrial biopsies histopathology. It is filed as in vivo. To be noted: female human volunteers; biopsies on day 29; exposure via oral 10 mg daily Org 41621.
The test system of another data set is ovulation. The data set is described as follows: Ovulation inhibition in intact cycling female rats. In kind it is in vivo.
The subject of another data set is vaginal tissue. The data set is described as follows: Allen-Doisy test. It is filed as in vivo.
The test system of data set [2] is estrogen receptors in the CNS. Kind of data set: Lordosis model (facilitation of female sexual behaviour). It is filed as in vivo.

The values that follow come from patent EP2440567B1, “SUBSTITUTED 16,17-ANNELLATED STEROID COMPOUNDS FOR USE IN WOMEN'S HEALTHCARE” (priority 2009, dated 2010).

SMILES strings stand for the structures.

In the case of `CCC[C@@H]1Cc2cc(O)ccc2[C@H]2CC[C@@]3(C)[C@@H](C[C@H]4CC[C@H](O)C[C@]43O)[C@H]12` [Org 41621, (7α,16β,17α,22β)-7-propyl-16,24-cyclo-19,21-dinorchola-1,3,5(10)-triene-3,17,22-triol, reference compound], the “major fetal abnormalities (ribs, humerus and scapula)” value was 3/273 in the data set on pregnant rats (pregnant rats, oral gavage, 0.09 mg/kg) and 11/216 in the data set on pregnant rats (pregnant rats, oral gavage, 0.15 mg/kg).

On to `CCC[C@@H]1Cc2cc(O)ccc2[C@H]2CC[C@@]3(C)[C@@H](C[C@H]4CCC(=O)C[C@]43O)[C@H]12` [Compound 10, (7α,16β,17α)-3,17-dihydroxy-7-propyl-16,24-cyclo-19,21-dinorchola-1,3,5(10)-trien-22-one], for which the “suppression of circulating levels of LH and FSH” value in data set [1] (4-week multiple dose, oral and subcutaneous application in gelatine/mannitol) was “effectively suppress”. Also, the “behaviour on vaginal tissue, cholesterol metabolism and bone (bone mineral density, circulating osteocalcin)” value in data set [1] (same series of studies) is “behaves as an estrogen receptor agonist”. Further, in the data set with pregnant rats (pregnant rats, oral gavage, 0.1 mg/kg), the “minor defects, incidence of wavy ribs” value is listed as 4/153. For the same compound, the “body weight gain of the dams” value in the data set with pregnant rats (pregnant rats, oral gavage, 0.1 mg/kg/day up to and including 10 mg/kg/day) was “significant reduction in body weight gain”. The “effects (fetal defects)” value in the data set on pregnant rats (pregnant rats, oral gavage, 0.3 mg/kg, based on a total of 13 fetuses) is recorded as “No effects”. In the data set on pregnant rats (pregnant rats, oral gavage, treated groups), the “major defects (fetuses)” value is listed as “No major defects”. For the same compound, the “teratogenicity in the rat” value in the data set on pregnant rats (preliminary embryofetal development study, up to a dose of 0.3 mg/kg) is recorded as “no evidence of teratogenicity”. Also, the “AOST BMD (rat) MAD p.o.” value in the data set with bone was found to be 0.12 mg/kg.day. In addition, in the data set on endometrium, the “Histopathology scores of endometrial biopsies” value was “mostly atrophic or inactive endometrium with some subjects showing conversion to secretory (P-type) endometrium” and the “signs of hyperplasia (endometrium)” value is “no signs of hyperplasia”. Moreover, the “Ovulation Inhibition (rat) MAD p.o.” value in the data set with ovulation was determined as 0.10 mg/kg.day. Besides, the “Allen-Doisy (rat) MAD p.o.” value in the data set with vaginal tissue came out at 0.15 mg/kg.day. The “Lordosis (rat) MAD p.o.” value in data set [2] is given as 0.14 mg/kg.day.

As to `C#C[C@]1(O)CC[C@H]2[C@@H]3CCc4cc(O)ccc4[C@H]3CC[C@@]21C` [EE, Ethynyl-Estradiol, reference compound], the “AOST BMD (rat) MAD p.o.” value in the data set on bone is reported as 0.020 mg/kg.day. Besides, in the data set on ovulation, the “Ovulation Inhibition (rat) MAD p.o.” value worked out at 0.022 mg/kg.day. Further, in the data set on vaginal tissue, the “Allen-Doisy (rat) MAD p.o.” value is 0.016 mg/kg.day. The “Lordosis (rat) MAD p.o.” value in data set [2] came to 0.035 mg/kg.day.
